Tests used:
[1] = target: T1, Metabotropic glutamate receptor 5 (Homo sapiens, UniProt P41594)
Description: Positive allosteric modulation of human mGlu5A receptor expressed in HEK293 cells coexpressing rat glutamate-aspartate transporter assessed as potentiation of L-glutamate-induced Ca2+ signal incubated for 60 mins by calcium 4 dye based FLIPR assay

[2] = target: T1, Metabotropic glutamate receptor 5; remark: listed apart in the source
Description: Agonist activity at human mGlu5A receptor expressed in HEK293 cells coexpressing rat glutamate-aspartate transporter assessed as induction of Ca2+ release by calcium 4 dye based FLIPR assay

[3] = target: T1, Metabotropic glutamate receptor 5; remark: listed apart in the source
Description: Displacement of [3H]MPEPgamma in mGlu5 receptor (unknown origin) incubated for 60 mins by liquid scintillation counting method

[4] = Protein binding in plasma (unknown origin); type: ADME, cell-free; details: read-out: PPB (converted)
Mus musculus [5] = experiment: Neurotoxicity in C57/BL6 mouse assessed as induction of convulsion at 10 mg/kg, ip; type: toxicity, organism-based; details: in vivo
[6] = target: T1, Metabotropic glutamate receptor 5; experiment: Displacement of [3H]MPEP in mGlu5 receptor (unknown origin) incubated for 60 mins by liquid scintillation counting method
Mus musculus [7] = experiment: Neurotoxicity in C57/BL6 mouse assessed as induction of convulsion at 30 mg/kg, ip; type: toxicity, organism-based; details: in vivo

T1 sequence (P41594 whole entry): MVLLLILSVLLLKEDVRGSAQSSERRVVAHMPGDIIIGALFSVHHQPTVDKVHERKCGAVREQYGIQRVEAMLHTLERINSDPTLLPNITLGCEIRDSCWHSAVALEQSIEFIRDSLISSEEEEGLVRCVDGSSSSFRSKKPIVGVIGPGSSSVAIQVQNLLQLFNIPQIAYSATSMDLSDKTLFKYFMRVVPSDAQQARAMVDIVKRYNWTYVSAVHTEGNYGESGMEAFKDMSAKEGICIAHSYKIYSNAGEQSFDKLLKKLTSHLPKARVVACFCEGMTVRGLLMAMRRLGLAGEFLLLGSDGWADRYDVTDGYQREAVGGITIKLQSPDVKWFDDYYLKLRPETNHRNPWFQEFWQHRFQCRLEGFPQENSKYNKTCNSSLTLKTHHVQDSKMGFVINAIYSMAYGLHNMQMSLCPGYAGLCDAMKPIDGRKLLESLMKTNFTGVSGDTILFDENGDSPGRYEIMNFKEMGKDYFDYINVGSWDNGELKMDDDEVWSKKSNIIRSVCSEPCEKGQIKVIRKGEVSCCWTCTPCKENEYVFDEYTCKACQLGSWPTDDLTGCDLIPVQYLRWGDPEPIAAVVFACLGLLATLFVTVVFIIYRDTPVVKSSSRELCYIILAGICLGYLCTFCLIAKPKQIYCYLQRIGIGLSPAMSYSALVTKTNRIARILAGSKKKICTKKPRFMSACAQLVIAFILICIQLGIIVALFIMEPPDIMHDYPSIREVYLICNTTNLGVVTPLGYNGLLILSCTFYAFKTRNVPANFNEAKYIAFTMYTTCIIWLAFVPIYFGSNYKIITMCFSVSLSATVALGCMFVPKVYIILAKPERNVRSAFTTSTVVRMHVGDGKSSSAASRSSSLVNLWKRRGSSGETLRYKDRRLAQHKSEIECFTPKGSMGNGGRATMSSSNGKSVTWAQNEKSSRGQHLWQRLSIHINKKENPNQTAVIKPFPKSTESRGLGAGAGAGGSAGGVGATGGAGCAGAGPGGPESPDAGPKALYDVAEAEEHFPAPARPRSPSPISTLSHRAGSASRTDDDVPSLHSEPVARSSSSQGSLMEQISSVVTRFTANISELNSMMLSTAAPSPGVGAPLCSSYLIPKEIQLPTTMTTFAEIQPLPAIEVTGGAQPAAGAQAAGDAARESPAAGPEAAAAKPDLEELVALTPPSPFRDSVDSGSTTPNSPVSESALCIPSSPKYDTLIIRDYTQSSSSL

Compound	EC50 [1] [nM]	EC50 [2] [nM]	Ki [3] [nM]	fraction unbound [4]	Activity (Mus musculus [5])	Ki [6] [nM]	Activity (Mus musculus [7])
COc1cccc([C@H]2OC(=O)N[C@@H]2c2cccc(C#Cc3ccccc3)c2)c1	29	> 30000	13	0.003	Non-toxic		
O=C1N[C@H](c2cccc(C#Cc3ccccc3)c2)[C@@H](c2cccc(F)c2)O1	15	> 30000				6.5	
O=C1N[C@H](c2cc(C#Cc3ccccc3)ccn2)[C@@H](c2ccccc2)O1	> 3000	> 3000	10	0.006			Non-toxic

— ChEMBL document CHEMBL3804767, “Discovery and Preclinical Evaluation of BMS-955829, a Potent Positive Allosteric Modulator of mGluR5” (ACS Med Chem Lett, 2016)
